Measurements as given in patent US20240293395A1, “NALTREXONE FOR IMPROVING THE […] OF 5-HT RECEPTOR SUBTYPE 2A, 2B or 2C AGONISTS” (LDN Pharma Limited, priority 2021, published 2024).

How the values were obtained:
[1] = system: mRNA for one or more of 5-HT2A, 5-HT2B or 5-HT2C receptor proteins; experiment: Microarray gene expression in CD3+ lymphocytes, summary statement over 5-HT2 receptors; type: cell-based, human; settings: both higher dose (10 uM) and low dose (10 nM) naltrexone, 4 h
Procedure: (§1) CD3+ lymphocytes were isolated from the blood of haematologically normal volunteers. Cells placed into 25 cm3 flasks at a concentration of 1×10^6/ml, and left to equilibrate in an incubator with a humidified atmosphere and 5% CO2 in air at 37° C. […] RNA extraction was performed using Trizol according to standard procedures, before being processed for microarray analysis according to the standard methodologies. Briefly, equal amounts of biotinylated cRNA was hybridised to the Illumina human HT12-v3 arrays for 18 h and subsequently processed according to manufacturer's instructions before scanning on an Illumina BeadArray Reader. The image data were processed using default values in GenomeStudio v2009.1 with imputation of missing data, before loading onto GeneSpring v9.0 for data normalisation and filtering. Data analyses were performed using Excel software, and the ratio of gene expression signals in treated vs. untreated calculated.

[2] = system: 5-HT receptor 2B (HTR2B), mRNA; experiment: Microarray gene expression in CD3+ lymphocytes, HTR2B probe ILMN_1735764; type: cell-based, human; settings: 4 h, Illumina HT12-v3 array
Procedure: as §1

O=C1CC[C@@]2(O)[C@H]3Cc4ccc(O)c5c4[C@@]2(CCN3CC2CC2)[C@H]1O5 [NTX, morphinan-6-one, 17-(cyclopropylmethyl)-4,5-epoxy-3,14-dihydroxy-(5α)]
levels of mRNA for one or more of 5-HT2A, 5-HT2B or 5-HT2C receptor proteins [1]: selectively increase the levels of mRNA
gene expression signal, LDN ([2]; low dose naltrexone 10 nM): 147.45
gene expression signal, NTX ([2]; naltrexone 10 uM): 177.95
